pIC50, pKi: −log10 of the molar value.
Columns and labels:
[1] = target: BCLXL WT (Homo sapiens (Human), UniProt Q07817); experiment: TR-FRET competitive binding assay, BCLXL WT; conditions: for pKi: BCLXL WT, Ki determined from IC50, read-out: TR_FRET EKI BclxL; for TR_FRET EKI BCLxL/WT selectivty ratio: ratio Ki BCLxL / Ki BCL2 WT
Summary of the method: (§1)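 Ki derived from IC50 (11-point dilution, 520/495 nm emission ratio) for displacing a fluorescein-labelled PUMA peptide (2 or 20 nM). Target was 0.5 nM E. coli-expressed Halo-tagged BCL2 (1-207) or BCLXL (2-196), terbium-labelled on Halo. Incubation 2 h at 23°C in pH 7.5 Hepes with 150 mM NaCl and 5% DMSO.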

[2] = target: BCL2 WT (Homo sapiens (Human), UniProt P10415); experiment: TR-FRET competitive binding assay, BCL2 WT; conditions: Ki determined from IC50, read-out: TR_FRET EKI_Bcl2 WT
Summary of the method: as §1

[3] = target: CYP3A4 (Homo sapiens (Human), UniProt P08684); experiment: CYP3A4 inhibition determination in hepatic human microsomes; assay type: in vitro ADME; conditions: LC/MS-MS of specific metabolite
Procedure: The inhibitory potential was determined on CYP3 Å4 enzyme using hepatic human microsomes. A range of concentrations (adapted based on the solubility) of the tested compound were incubated in presence of a substrate having a specific metabolite of CYP3 Å4 enzyme.
Then, the formation of the metabolite was quantified using LC/MS-MS analysis and a curve corresponding to the concentration of the metabolite in function of the concentration of the test compound allowed to the calculation of the IC50 value.

[4] = target: BCL2 G101V (Homo sapiens, UniProt P10415, G101V); experiment: TR-FRET competitive binding assay, BCL2 G101V; conditions: BCL2 G101V; Ki determined from IC50; read-out: TR_FRET EKI_Bcl2 G101V
Summary of the method: as §1

[5] = tested on: BCL2 G101V; experiment: TR-FRET competitive binding assay, BCL2 G101V; set-up: species or system human; conditions: ratio Ki BCL2 G101V / Ki BCL2 WT
Summary of the method: as §1

[6] = tested on: KMS-12-PE Bcl-2 WT; experiment: In vitro cytotoxicity CellTiter-Glo 48 h, KMS-12-PE Bcl-2 WT; assay type: cell-based; conditions: Homo sapiens, KMS-12-PE, C50 = concentration needed to reach 50% of the cellular viability
Summary of the method: (§2)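 Transduce KMS-12-PE with Bcl-2 WT or G101V lentivirus, then FACS-sort RFP-positive cells. Add compounds in an 11-point dilution series and incubate 48 h at 37 °C. Measure ATP-based luminescence with CellTiter-Glo and derive C50 (50% viability).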

[7] = tested on: KMS-12-PE Bcl-2 G101V; experiment: In vitro cytotoxicity CellTiter-Glo 48 h, KMS-12-PE Bcl-2 G101V; assay type: cell-based; conditions: for Ratio (G101V/WT): C50 KMS-12-PE Bcl-2 G101V over C50 KMS-12-PE Bcl-2 WT; for IC50: Homo sapiens, KMS-12-PE, 48 h, CellTiter-Glo, C50 = concentration needed to reach 50% of the cellular viability
Summary of the method: as §2

[8] = target: BCL2 F104I (Homo sapiens, UniProt P10415, F104I); experiment: TR-FRET competitive binding assay, BCL2 F104I; conditions: Ki determined from IC50, read-out: TR_FRET EKI_Bcl2 F104I
Summary of the method: as §1

[9] = target: BCL2 D103Y (Homo sapiens, UniProt P10415, D103Y); experiment: TR-FRET competitive binding assay, BCL2 D103Y; conditions: Ki determined from IC50, read-out: TR_FRET EKI_Bcl2 D103Y
Summary of the method: as §1

[10] = target: BCL2 D111A (Homo sapiens, UniProt P10415, D111A); experiment: TR-FRET competitive binding assay, BCL2 D111A; conditions: Ki determined from IC50, read-out: TR_FRET EKI_Bcl2 D111A
Summary of the method: as §1

BCLXL WT, sequence (Q07817 other isoform, or with tags, fused parts or gaps): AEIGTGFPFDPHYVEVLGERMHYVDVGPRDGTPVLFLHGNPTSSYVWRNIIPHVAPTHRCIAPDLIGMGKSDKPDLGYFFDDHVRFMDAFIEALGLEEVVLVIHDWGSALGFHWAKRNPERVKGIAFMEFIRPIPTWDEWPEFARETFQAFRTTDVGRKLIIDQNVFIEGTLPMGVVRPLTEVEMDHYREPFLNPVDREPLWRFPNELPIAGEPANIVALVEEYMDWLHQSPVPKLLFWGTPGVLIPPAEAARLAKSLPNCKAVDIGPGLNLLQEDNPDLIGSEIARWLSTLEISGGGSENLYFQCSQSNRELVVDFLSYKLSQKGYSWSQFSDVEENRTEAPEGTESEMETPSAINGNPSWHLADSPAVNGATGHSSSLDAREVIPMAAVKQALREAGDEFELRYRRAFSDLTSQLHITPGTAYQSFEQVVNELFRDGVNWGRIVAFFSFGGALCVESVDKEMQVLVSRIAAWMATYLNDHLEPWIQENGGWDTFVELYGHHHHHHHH
CYP3A4, sequence (P08684 whole entry): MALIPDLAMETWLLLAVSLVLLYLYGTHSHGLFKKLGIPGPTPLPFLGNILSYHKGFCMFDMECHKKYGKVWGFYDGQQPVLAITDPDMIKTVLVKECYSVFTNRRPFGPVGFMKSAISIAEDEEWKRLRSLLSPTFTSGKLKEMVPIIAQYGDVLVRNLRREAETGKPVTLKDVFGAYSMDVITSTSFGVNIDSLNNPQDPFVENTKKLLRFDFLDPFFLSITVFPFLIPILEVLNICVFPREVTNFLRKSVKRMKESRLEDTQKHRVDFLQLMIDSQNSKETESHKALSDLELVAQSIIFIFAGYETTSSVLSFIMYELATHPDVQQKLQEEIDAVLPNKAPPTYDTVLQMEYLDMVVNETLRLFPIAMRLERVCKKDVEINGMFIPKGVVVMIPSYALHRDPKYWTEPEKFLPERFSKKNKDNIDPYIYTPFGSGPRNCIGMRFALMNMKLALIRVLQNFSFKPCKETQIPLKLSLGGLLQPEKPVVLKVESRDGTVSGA

With `Cc1c(N(C(=O)c2cc(-c3cc4c(cc3C(=O)N3Cc5ccccc5C[C@H]3CN(C)C(C)C)CN(C(=O)Cc3ccc(OCCN5CCOCC5)cc3F)CC4)n(C)c2C)c2ccc(O)cc2)cc(C#N)n1C` [Example 91, N-(5-cyano-1,2-dimethyl-1H-pyrrol-3-yl)-5-[2-(2-{2-fluoro-4-[2-(morpholin-4-yl)ethoxy]phenyl}acetyl)-7-[(3S)-3-{[methyl(propan-2-yl)amino]methyl}-1,2,3,4-tetrahydroisoquinoline-2-carbonyl]-1,2,3,4-tetrahydroisoquinolin-6-yl]-N-(4-hydroxyphenyl)-1,2-dimethyl-1H-pyrrole-3-carboxamide] as the molecule, how does the pKi [1] read?
The pKi was 8.62.

And the “TR_FRET EKI BCLxL/WT selectivty ratio” value [1]?
The value was 60.0.

What about the pKi [2] of the same molecule?
The pKi was 10.40.

What about the pIC50 [3] of the same molecule?
The pIC50 was 4.74.

What about the pKi [4] of the same molecule?
The pKi was 9.52.

And the “TR_FRET EKI G101V/WT selectivty ratio” value [5]?
The value was 6.8.

What about the IC50 [6] of the same molecule?
Its IC50 is 0.0084 µM.

And the “Ratio (G101V/WT)” value [7]?
The value was 5.96.

What about the IC50 [7] of the same molecule?
Its IC50 is 0.0498 µM.

What about the pKi [8] of the same molecule?
The pKi was 9.60.

What about the pKi [9] of the same molecule?
The pKi was 9.77.

And the pKi [10]?
The pKi was 10.10.

Which results are given for `Cc1c(C(=O)N(c2ccc(O)cc2)c2cc(C#N)n(C(F)F)c2C)cc(-c2cc3c(cc2C(=O)N2Cc4ccccc4C[C@H]2CN2CCCC2)CN(C(=O)Cc2ccc(OCCN4CCOCC4)cc2F)CC3)n1C` [Example 110]?
pKi [1]: 8.39; TR_FRET EKI BCLxL/WT selectivty ratio [1]: 102.5; pKi [2]: 10.40; pIC50 [3]: < 5.30; pKi [4]: 9.52; TR_FRET EKI G101V/WT selectivty ratio [5]: 6.3; IC50 [6]: 0.0102 µM; Ratio (G101V/WT) [7]: 5.02; IC50 [7]: 0.0512 µM; pKi [8]: 9.82; pKi [9]: 9.96; pKi [10]: 10.05
